Test [1] deals with Saccharomyces cerevisiae. Description: DNA damaging activity against DNA repair-deficient yeast RAD52 mutant assessed as drug concentration required to produce 12 mm zone of inhibition. It counts as functional.
Test [2] deals with Saccharomyces cerevisiae. Put plainly: DNA damaging activity against DNA repair-proficient yeast RAD+ assessed as drug concentration required to produce 12 mm zone of inhibition. It counts as functional.

SMILES strings stand for the structures.

In the case of `COC1=C(N)C(=O)c2nc(-c3nc(C(=O)O)c(C)c(-c4ccc(OC)c(OC)c4O)c3N)ccc2C1=O` [STREPTONIGRIN], the IC12 with Saccharomyces cerevisiae [1] was 0.4 µg/mL; in the test with Saccharomyces cerevisiae [2] it was over 1 µg/mL.

On to `CC1=C2[C@@H](O)[C@]3(O)CC[C@@H]4[C@@]5(C)C[C@H]5CC[C@@]4(C)[C@@H]3C[C@H]2OC1=O` [SUREGADOLIDE A], for which the IC12 turned out to be 35 µg/mL in the test with Saccharomyces cerevisiae [1] and 70 µg/mL with Saccharomyces cerevisiae [2].
